The subject of the assay is MDA-7 protein in 2008/C*13 R cells. The experiment in a line: Western blotting of MDA-7 protein expression. To be noted: 48 h, vs Ad-mda7 alone. Format: cell-based, human. The method, then: FIG. 4. MDA-7 protein expression is increased in CDDP-Resistant Ovarian tumor cells in a time-dependent and dose-dependent manner. FIG. 4A, Ovarian tumor cells (2008 and 2008/C*13 R) seeded in six-well plates were treated with PBS, Ad-luc or Ad-mda7 (3000 vp/cell). Cells were harvested on day 1 and day 2 after treatment and analyzed for MDA-7 protein expression by western blotting. […] Beta-actin was used as an internal loading control. FIG. 4B, Ovarian tumor cells (2008 and 2008/C*13 R) seeded in six-well plates were treated with different doses of Ad-mda7 (1000, 3000, 5000 or 7500 vp/cell). Untreated cells served as control. Cells were harvested on day 2 after treatment and analyzed for MDA-7 protein expression by western blotting. […] Beta-actin was used as an internal loading control. […] However, MDA-7 protein was higher in the supernatant of Ad-mda7-treated 2008/C*13 R cells compared to Ad-mda7-treated 2008 cells.
FIG. 11. […]
MDA-7 Protein Expression is Increased in CDDP-Resistant Ovarian Tumor Cells in a Time-dependent and Dose-Dependent Manner. […] Cells were harvested on day 1 and day 2 after treatment and analyzed for MDA-7 protein expression by western blotting. […] Cells were harvested on day 2 after treatment and analyzed for MDA-7 protein expression by western blotting. […]
On the technique in general: A western blot detects proteins with antibodies after separation by electrophoresis.

Where a SMILES comes first, the peptide text is derived from it. The star is where a group is joined. Cbz = O=C(OCc1ccccc1)*

Take `CC(C)C[C@@H](C=O)NC(=O)[C@H](CC(C)C)NC(=O)[C@H](CC(C)C)NC(=O)OCc1ccccc1` [MG132] (Cbz-Leu-Leu-Leu-aldehyde): the “MDA-7 protein expression with proteasome inhibitor” value is listed as “significantly increased”.

Source of the values: patent US20090004145A1, “COMPOSITIONS AND METHODS INVOLVING GENE THERAPY AND PROTEASOME MODULATION” (priority 2006, published 2009).
